Patent US10294202B2, “Pyrrolidinones as herbicides” (FMC Corporation, priority 2013, dated 2019)

How the values were obtained:
[1] = tested on: corn; assay: Test A pre-/postemergence herbicide test; format: in vivo, Zea mays; conditions: Postemergence
Procedure, shortened: (§1)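 Visual injury ratings, 0 = no effect, 100 = complete control, taken ~10 days after treatment against untreated greenhouse controls. Preemergence: directed soil spray onto seeded loam/sand pots. Postemergence: spray onto plants at one- to two-leaf stage, 2–10 cm tall.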

[2] = tested on: blackgrass; assay: Test A postemergence herbicide test; format: in vivo, Alopecurus myosuroides
Procedure, shortened: (§2)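 Injury was rated visually about 10 days after treatment on a 0 (no effect) to 100 (complete control) scale, compared with untreated plants. Test chemicals were sprayed postemergence onto greenhouse plants 2–10 cm high at one to two leaves, grown in a loam–sand blend.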

[3] = tested on: ducksalad; assay: Test C flooded paddy test; format: in vivo, Heteranthera limosa; conditions: Flood
Procedure, shortened: (§3)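 Visual ratings from 0, no effect, to 100, complete control, were made against untreated controls after 13–15 greenhouse days. Compounds had gone straight into paddy water 3 cm above the soil, kept at that depth, on 2-leaf-stage plants.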

[4] = tested on: giant foxtail; assay: Test A pre-/postemergence herbicide test; format: in vivo, Setaria faberii; conditions: for Plant response rating, Foxtail, Giant: 0 to 100 scale
Procedure, shortened: as §1

[5] = tested on: sedge, umbrella; assay: Test C flooded paddy test; format: in vivo, Cyperus difformis; conditions: Flood
Procedure, shortened: as §3

[6] = tested on: galium; assay: Test A postemergence herbicide test; format: in vivo, Galium aparine
Procedure, shortened: as §2

[7] = tested on: barnyardgrass; assay: Test C flooded paddy test; format: in vivo, Echinochloa crus-galli; conditions: Flood
Procedure, shortened: as §3

[8] = tested on: rice; assay: Test C flooded paddy test; format: in vivo, Oryza sativa; conditions: Flood
Procedure, shortened: as §3

[9] = tested on: barnyardgrass; assay: Test A pre-/postemergence herbicide test; format: in vivo, Echinochloa crus-galli
Procedure, shortened: as §1

[10] = tested on: wheat; assay: Test A pre-/postemergence herbicide test; format: in vivo, Triticum aestivum; conditions: Postemergence
Procedure, shortened: as §1

[11] = tested on: kochia; assay: Test A pre-/postemergence herbicide test; format: in vivo, Kochia scoparia; conditions: for Plant response rating, Kochia: 0 to 100 scale
Procedure, shortened: as §1

[12] = tested on: ryegrass, Italian; assay: Test A pre-/postemergence herbicide test; format: in vivo, Lolium multiflorum; conditions: for Plant response rating, Ryegrass, Italian: 0 to 100 scale
Procedure, shortened: as §1

[13] = tested on: ragweed; assay: Test A pre-/postemergence herbicide test; format: in vivo, Ambrosia elatior; conditions: for Plant response rating, Ragweed: 0 to 100 scale
Procedure, shortened: as §1

[14] = tested on: pigweed; assay: Test A pre-/postemergence herbicide test; format: in vivo, Amaranthus retroflexus; conditions: for Plant response rating, Pigweed: 0 to 100 scale
Procedure, shortened: as §1

[15] = 125 g ai/ha, 0 to 100 scale, 0 no effect, 100 complete control
[16] = 500 g ai/ha, 0 to 100 scale (0 no effect, 100 complete control)
[17] = 125 g ai/ha, scale of 0 to 100 where 0 is no effect and 100 is complete control, 13 to 15 days
[18] = Postemergence, 125 g ai/ha, 0 no effect, 100 complete control
[19] = Preemergence, 125 g ai/ha, visual rating on 0 to 100 scale (0 no effect, 100 complete control)

O=C1NCC(c2cccc(C(F)(F)F)c2)C1C(=O)Nc1nncs1 (racemic) [Compound 111]
30: Plant response rating, Ducksalad ([3]; 500 g ai/ha, scale 0 to 100)
0: Plant response rating, Corn [1, 15] | Plant response rating, Corn [1, 16] | Plant response rating, Blackgrass [2, 15] | Plant response rating, Blackgrass [2, 16] | Plant response rating, Ducksalad [3, 17] | Plant response rating, Ducksalad ([3]; 250 g ai/ha, scale 0 to 100) | Plant response rating, Foxtail, Giant [4, 18] | Foxtail, Giant plant response rating (0 to 100 scale, 0 is no effect, 100 is complete control) ([4]; Postemergence, 500 g ai/ha) | Foxtail, Giant plant response rating [4, 19] | Plant response rating, Foxtail, Giant ([4]; preemergence, 500 g ai/ha) | Plant response rating, Sedge, Umbrella [5, 17] | Plant response rating, Sedge, Umbrella ([5]; 250 g ai/ha, scale 0 to 100) | Plant response rating, Sedge, Umbrella ([5]; 500 g ai/ha, scale 0 to 100) | Plant response rating, Sedge, Umbrella ([5]; 1000 g ai/ha, scale 0 to 100) | Plant response rating, Galium [6, 15] | Galium plant response rating (0 to 100 scale, 0 is no effect, 100 is complete control) ([6]; 500 g ai/ha) | Plant response rating, Barnyardgrass [7, 17] | Plant response rating, Barnyardgrass ([7]; 250 g ai/ha, scale 0 to 100) | Plant response rating, Barnyardgrass ([7]; 500 g ai/ha, scale 0 to 100) | Plant response rating, Barnyardgrass ([7]; 1000 g ai/ha, scale 0 to 100) | Plant response rating, Rice [8, 17] | Plant response rating, Rice ([8]; 250 g ai/ha, scale 0 to 100) | Plant response rating, Rice ([8]; 500 g ai/ha, scale 0 to 100) | Plant response rating, Rice ([8]; 1000 g ai/ha, scale 0 to 100) | Plant response rating, Barnyardgrass ([9]; Postemergence, 125 g ai/ha, 0 to 100 scale, 0 no effect, 100 complete control) | Plant response rating, Barnyardgrass ([9]; Postemergence, 500 g ai/ha, 0 to 100 scale (0 no effect, 100 complete control)) | Barnyardgrass plant response rating [9, 19] | Plant response rating, Barnyardgrass ([9]; preemergence, 500 g ai/ha, 0 to 100 scale (0 no effect, 100 complete control)) | Plant response rating, Wheat [10, 15] | Wheat plant response rating (0 to 100 scale, 0 is no effect, 100 is complete control) ([10]; 500 g ai/ha) | Plant response rating, Kochia [11, 18] | Kochia plant response rating (0 to 100 scale, 0 is no effect, 100 is complete control) ([11]; Postemergence, 500 g ai/ha) | Kochia plant response rating [11, 19] | Plant response rating, Kochia ([11]; preemergence, 500 g ai/ha) | Plant response rating, Ryegrass, Italian [12, 18] | Ryegrass, Italian plant response rating (0 to 100 scale, 0 is no effect, 100 is complete control) ([12]; Postemergence, 500 g ai/ha) | Ryegrass, Italian plant response rating [12, 19] | Plant response rating, Ryegrass, Italian ([12]; preemergence, 500 g ai/ha) | Plant response rating, Ragweed [13, 18] | Ragweed plant response rating (0 to 100 scale, 0 is no effect, 100 is complete control) ([13]; Postemergence, 500 g ai/ha) | Ragweed plant response rating [13, 19] | Plant response rating, Ragweed ([13]; preemergence, 500 g ai/ha) | Plant response rating, Pigweed [14, 18] | Pigweed plant response rating (0 to 100 scale, 0 is no effect, 100 is complete control) ([14]; Postemergence, 500 g ai/ha) | Pigweed plant response rating [14, 19] | Plant response rating, Pigweed ([14]; preemergence, 500 g ai/ha)
40: Plant response rating, Ducksalad ([3]; 1000 g ai/ha, scale 0 to 100)
